Experimental findings from a melting point compilation (Tetko et al.; mined from patent text by program, amines drawn as free bases though some values may be those of a salt) are described below.

The melting point is the temperature, or range, at which the solid turns liquid.

Regarding `O=S(=O)(c1ccccc1)n1c(C(O)c2ccoc2)cc2ccncc21` (stereo not given), the melting point fell in the range of 168 to 171 °C. Under `O=c1c(O)c(-c2ncn(Cc3ccc(F)cc3)n2)oc2ccccc12` stands 260 to 262 °C. The molecule `CN(C)Cc1ccc(CSCCN=CNS(=O)(=O)c2ccc(Cl)cc2)o1` gave a melting point of 93 to 96 °C. Under `Cn1nnc(-c2ccc(-c3nnn(C)n3)nc2)n1` stands 225 to 226 °C. As for `CS(=O)(=O)N(C(=O)c1cc(Oc2ccc(C(F)(F)F)cc2Cl)ccc1[N+](=O)[O-])C(=O)c1cc(Oc2ccc(C(F)(F)F)cc2Cl)ccc1[N+](=O)[O-]`, the figure is 166 to 168 °C. As for `CC12CCC(C1)C1(C)Oc3ccc(C(=O)/C=C/c4ccc(C(=O)O)cc4)cc3C21C` (stereo not given), the figure is 225 to 227 °C; as for `O=[N+]([O-])c1cccnc1NCc1ccccc1`, 81 to 82 °C; as for `CC(C)OC(=O)c1ccc2c(c1)ncn2-c1cccc(N2CCN(C)CC2)c1`, 173 to 174 °C. In turn, `CSc1ccc(-c2n[nH]c(=O)cc2-c2ccc(Cl)cc2)cc1` gave a melting point of 202 to 204 °C. As for `Cn1cc(C(=O)NCc2ccc(Cl)cc2)c(=O)c2cccc(C#CCO)c21`, the figure is 228 to 230 °C. `CS(=O)(=O)C(=C1CN(C(c2ccccc2)c2ccccc2)C1)c1ccc2ccccc2c1` returned a melting point of 178 °C. Under `CCc1nc2c(C)cc(C)nc2n1Cc1ccc(C(c2ccccc2)C(C)(C)C(=O)O)cc1` (stereo not given) stands 103 to 106 °C; under `COc1cc(-c2cccc(Cl)c2)c2cc(C(O)(c3ccc(Cl)cc3)c3cncn3C)cc(NC(C)=O)c2n1` (stereo not given), 143 °C. As for `CC1(C)CCSc2ccc(CC#Cc3ccc(C(=O)O)c(O)c3)cc21`, the figure is 195 to 196 °C; as for `CCN(C(=O)Cl)c1ccc2c(c1)OCO2`, 68 to 69 °C; as for `O=C(Nc1ccccc1)c1cccc(C2=NOCCS2)c1`, 149 to 150 °C. As for `CC(C)(C)OC(=O)[C@@H]1CCCN2C(=O)CC[C@H](NC(=O)OCC3c4ccccc4-c4ccccc43)C(=O)N12`, the figure is 190 to 192 °C; as for `CCC(=O)OC(C)c1ccc(-c2ccc(O)cc2)cc1` (single isomer, unassigned; (+)), 133 to 135 °C; as for `CCCCCCCCCCOc1ccc(C(=O)Nc2ccc(C(=O)O)cc2)cc1C12CC3CC(CC(C3)C1)C2`, 247 to 248 °C. `COc1cc2c(cc1OC)C(C(CO)CO)=NCC2` showed a melting point of 129 °C. As for `Cn1c(CC#N)ccc1C(=O)c1cccs1`, the figure is 132 to 133 °C. As for `COc1ccc(Cn2nc(-c3ccc(OC)cc3)c(-c3ccncc3)cc2=O)cc1`, the figure is 143 °C; as for `CC1CCCCC1OC(=O)c1ncn2c1C1CCCN1C(=O)c1c(Cl)cccc1-2` (stereo not given), 213 to 215 °C.

Molecule `O=Cc1c(Cl)nc2n(c1=O)CCS2` gave a melting point of 152 to 154 °C.

Molecule `CC(C)C[C@H](C(=O)OCc1ccccc1)N1CC[C@]2(CCCN2C(=O)C(C)C)C1=O` gave a melting point of 87 °C.

For the molecule `Cc1ccccc1C(Oc1cc(OCc2cncs2)ccc1C#N)C(=O)O` (stereo not given), the melting point lay in the range of 226 to 227 °C. Under `CCOc1ccc(C(=O)Nc2ccccc2)cc1[N+](=O)[O-]` stands 189 to 190 °C. As for `O=C(Nc1cccc(C(F)(F)F)c1)c1cccc2cc(Oc3cc(CCl)ncn3)ccc12`, the figure is 178 to 181 °C; as for `Brc1ccc(OC2CCN(c3nc4cccc5c4n3CCC5)CC2c2ccccc2)cc1` (stereo not given), 188 to 189 °C; as for `CC1(C)OC(=O)C(=CSCc2cccs2)C(=O)O1`, 109 to 111 °C. As for `OCc1ccc2[nH]cc(CCCCN3CC=C(c4ccccc4)CC3)c2c1`, the figure is 162 to 164 °C; as for `COC(=S)CCC[C@@H](O)[C@@H](c1ccccc1)c1ccc2ccccc2c1` (relative stereo), 90 °C; as for `COc1ccccc1N1CCN(CCCn2c(=O)[nH]c3sccc3c2=O)CC1`, 217 to 218 °C. For `COc1cc(C(=O)N2CC(O)CC2C(N)=O)cc(OC)c1OC` (stereo not given), the melting point was 172 °C. Under `O=C1NC(=O)c2c1cc(-c1ccccc1)c1[nH]c3ccc(O)cc3c21` stands 335 to 345 °C. As for `COCC(COC)Oc1cc(Oc2ccc(S(C)(=O)=O)nc2)cc2cc(C3=NCC(CC(N)=O)S3)[nH]c12` (stereo not given), the figure is 172 to 173 °C; as for `CCOc1ccc([C@H]2O[C@H](CC(=O)O)C(=O)N(CC(C)(C)C)c3ccc(Cl)cc32)c(OC)c1` (relative stereo), 230 to 232 °C.

`CC(C)NC(=O)Nc1c(C(=O)c2ccccc2)[nH]c2cc(Cl)ccc12` showed a melting point of 265 to 266 °C. As for `Cn1c(C(F)(F)F)cc(=O)n(-c2ccc(OCc3ccc(Cl)cc3)cc2)c1=O`, the figure is 167 to 169 °C. With `CC1(C)COC(=O)N1Br`, the melting point lay in the range of 118 to 120 °C. Under `Cc1c(CC(=O)O)c2cc3c(cc2n1C(=O)c1ccc(Cl)cc1)OCO3` stands 190 to 191 °C; under `CC(=O)N1CCc2cc(C(=O)CN(Cc3ccccc3)Cc3ccccc3)ccc21`, 130 °C; under `O=C1C=C(c2ccc(C(F)(F)F)cc2C(F)(F)F)CO1`, 116 to 117 °C.

`COCOc1cc(C(F)(F)F)ccc1-c1cc(Oc2ccc3cccnc3c2)ncn1` came in with a melting point of 98.8 to 99.4 °C. The molecule `CCCn1cc(Cc2ccc(C(=O)O)cc2OC)c2cc(CC3CCCN(C)C3=O)ccc21` (stereo not given) gave a melting point of 105 to 115 °C. Under `Cc1ncncc1C(=O)Nc1ccc(-n2nc(C(F)(F)F)cc2C2CC2)c(F)c1` stands 101 to 103 °C; under `CC(C)C12COc3cc(Cl)ccc3C1=NN(C(Cl)=Nc1ccc(C(F)(F)F)cc1)C2` (stereo not given), 148 to 149 °C; under `O=c1oc(-c2cccc(C(F)(F)F)c2)nc2ccc(F)cc12`, 118 to 119 °C. As for `CN(C(C)(C)C)S(=O)(=O)CC(N)=O`, the figure is 105 to 109 °C.

Molecule `CN(CCO)Cc1ccc(-c2ccc(N3C[C@H](Cn4ccnn4)OC3=O)cc2F)cn1` yielded a melting point of 137 °C. As for `Cc1cc2c(c3c(=O)cc(C(=O)O)oc13)OC(C)(C)c1cc(S(=O)(=O)O)ccc1-2`, the figure is 264 to 266 °C; as for `CN1Cc2c(C#CCO)ncn2-c2cccc(Cl)c2C1=O`, 250 to 252 °C; as for `CCOC(=O)C(Cc1c[nH]c2c(C(=O)c3ccc(Cl)cc3)cccc12)C(=O)OCC`, 197 to 201 °C. With `COC(=O)C=Cc1ccc2c(c1)OCCO2`, the melting point was 66 to 68 °C. Under `CCc1ccc(Nc2nc3cc(NC(=O)c4ccc(Cl)cc4)ccc3o2)cc1` stands greater than 250 °C.

`Cc1ccc(S(=O)(=O)NC(=O)OCCc2ccc(-n3c(CCCc4ccccn4)nc4cc(C(F)(F)F)c(Cl)cc43)cc2)cc1` came in with a melting point of 193 °C.

For the molecule `CC1=CC(O)C(OC(=O)c2cccc(N)c2)C(C)(C)CC1=O` (stereo not given), the melting point is 121 to 123 °C.

For `COc1cn(-c2cccc(Br)c2F)nc(-c2ccnn2-c2ccccc2)c1=O`, the melting point fell in the range of 186 to 191 °C. Under `CC1(C)OC[C@H](COn2cnc3c(Cl)nc(NC=O)nc32)O1` stands 145 to 148 °C; under `COc1ccc(C2CCC(OC(C)=O)CC2NC(=O)c2ccc(OCC3CC3)c(OCC3CC3)c2)cc1OC` (stereo not given), 90 to 95 °C. Under `CC(C)c1cc(S(C)(=O)=O)c(C(C)C)cc1C#N` stands 134 to 137 °C; under `COc1ccc(C2=NN(CC3CCCCC3)C(=O)[C@H]3CCCC[C@@H]23)cc1OC` (relative stereo), 137 to 139 °C; under `Cc1ccc2c(Cl)cc(I)c(O)c2n1`, 85 to 93 °C. As for `COC(=O)C(=O)c1cn2c3c(cccc13)C(Br)CC2` (stereo not given), the figure is 120 to 122 °C; as for `COC(=O)C(Cl)=NNc1ccc(Cl)cc1`, 149 to 150 °C; as for `NC1=NC(c2ccccc2)(c2cccc(Cc3ccc(F)cc3)c2)C2=NCCCN12` (stereo not given), 152 °C. In the case of `O=C(O)CCCCCn1c2ccccc2c(=O)c2cc(Br)ccc21`, the melting point was 213 °C. Under `CSC(=S)NN=Cc1ccccn1` stands 171 to 173 °C; under `Cc1cc(C(C)(C)C)c(O)c(S(=O)(=O)Nc2ccc(I)cc2)c1`, 184 to 185 °C. Turning to `COc1cc(N)c(C(=O)N(C)C)cc1OC`, the melting point lay in the range of 94 to 103 °C. Under `Cn1c(=O)oc2c(OC3CCCCO3)cccc21` (stereo not given) stands 128 to 129 °C; under `COc1cc(F)ccc1OCC#Cc1ccc(Cl)nc1`, 86 to 87 °C. Under `CCOC(=O)N(N=c1[nH]c(SC)nc2ccc(C)cc12)c1ccccc1` stands 230 °C. As for `CCCCCCCNC(=O)N(C)c1cccc(-c2ccc(C=C(C)C(=O)O)cc2OCCCC)c1`, the figure is 70 to 72 °C; as for `CC(C)(C)OC(=O)n1ccc2cnccc21`, 65 °C. In turn, `COc1cccc(C(C[N+](=O)[O-])C2CCCCC2=O)c1` (racemic) showed a melting point of 125 to 126 °C. `CC1(C)Oc2ccc(Br)cc2C(n2ccccc2=O)=C1CN(O)C(N)=S` showed a melting point of 219 °C. As for `O=C(CCN1CCCCC1)Nc1cccc(NC(=O)Nc2ccc(N(CCCl)CCCl)cc2)c1`, the figure is 108 to 110 °C; as for `CC(C)N1CC=C(c2c[nH]c3ccccc23)CC1`, 178 °C; as for `CS(=O)(=O)Nc1ccc(C(O)CN2CCCCCC2)cc1` (stereo not given), 120 to 122 °C.

For `CC1(C)C(=O)N(c2ccc([N+](=O)[O-])c(C(F)(F)F)c2)C(=O)N1CCOCCN1C(=O)N(c2ccc([N+](=O)[O-])c(C(F)(F)F)c2)C(=O)C1(C)C`, the melting point was in the range of 186 to 188 °C. As for `CCc1nn(-c2c(Cl)cc(Cl)cc2Cl)c(N)c1C(N)=O`, the figure is 186 to 188 °C.

`O=c1c(Cc2cccnc2)cn2c3ccccc3c3cc(OCCCO)cc1c32` gave a melting point of 72.5 to 78.6 °C. Under `CC1=Nc2c(-c3ccncc3)c(-c3ccc(F)cc3)nn2C(C)(C)C1` stands 171 to 173 °C; under `COc1cc(-c2cc(O)n(C)n2)cc([N+](=O)[O-])c1OC`, 200 to 202 °C.
